Experimental data published in patent US7307166B1, “Oxpurine nucleosides and their congeners, and acyl, derivatives thereof, for improvement of hematopoiesis” (Wellstat Therapeutics Corporation, priority 1987, dated 2007).

Legend:
female Balb/C mice = test: Survival of mice irradiated with Cobalt 60 gamma radiation; assay type: in vivo, mouse; details: for number of mice surviving 30 days after irradiation over number irradiated: 50 mg/kg i.p. daily 6 days from 24 h after irradiation
Balb/C female mice = test: Hematopoietic recovery after cyclophosphamide in mice (spleen weight, blood cell counts); assay type: in vivo, mouse
[1] = system: normal mouse bone marrow cells; test: Proliferation of bone marrow cells in long-term culture; assay type: cell-based; details: 10 micrograms per ml
Method: Bone marrow cells from the femurs of B6D2F1 mice were used to establish long-term marrow cultures. After four weeks, when the stromal layer was confluent, the culture was treated with microphenolic acid in order to remove all cells from the stroma. New normal bone marrow cells (1×10^5/ml) from the same source were then used to “recharge” the stromal layer. Palmitoyldeoxyguanosine was added to half of the cultures at a concentration of 10 micrograms per ml. […] On days 4 and 7 cells from the culture were removed, washed, and replated in methylcellulose. The number of granulo-monocytic colonies was counted one week later.

IFN-gamma = test: LPS-induced serum interferon-gamma (ELISA); assay type: in vivo, mouse
Method: Sixty-three female Balb/C mice were randomly assigned to one of three groups. The animals in one group received a single daily dose of N^2,3′,5′-tripalmitoyldeoxyguanosine (PdG) (25 mg/kg, i.p.), while a second group received a single daily dose of the PdG treatment vehicle (control). The third group was left untreated. On the fourth day 100 μg salmonella typhimurium LPS was administered to all three groups. Serum samples were taken just prior to LPS administration (t=0) and at two, four, six, eight, ten, twelve, sixteen, and twenty hours after LPS administration. The samples were then frozen until the time of assay. Serum levels of TNF-alpha, and IFN-gamma were measured by ELISA.
In the tables below, units for cytokine concentrations are picograms per ml. A value of 0 indicates cytokine levels below the detection limit of the assay (50 to 100 pg/ml).

thymocytes = test: Corticosteroid-induced apoptosis in mouse thymus; assay type: in vivo
Method: Thymic lymphocytes, or thymocytes, undergo a suicide process known as apoptosis or programmed cell death in response to various stimuli, including ionizing radiation, calcium ionophores, glucocorticoid hormones, and other agents. Apoptosis is also part of the normal physiological process of development and of lymphocyte (and other cell) selection.
Eight male B6D2F1 mice weighing approximately twenty-five grams were given a single injection of either palmitoyldeoxyguanosine (25 mg/kg, i.p.) in a Tween-DMSO vehicle (0.02% Tween and 7.5% DMSO in physiological saline) or vehicle alone. Forty-eight hours later these mice were given an i.p. injection of a long-acting corticosteroid, methylprednisolone acetate (Depo-Medrol; 250 mg/kg). Forty-eight hours following administration of the corticosteroid, all eight of these animals and four additional untreated animals (basals) were sacrificed by cervical dislocation, the thymuses and spleens removed and weighed, and thymic cell number and viability measured by established methods.

For `CCCCCCCCCCCCCCCC(=O)OC[C@H]1O[C@@H](n2cnc3c(=O)[nH]c(N)nc32)[C@H](O)[C@@H]1O`, the “number of mice surviving 30 days after irradiation over number irradiated” value (female Balb/C mice; 725 R) was 5/5, the “number of mice surviving 30 days after irradiation over number irradiated” value (female Balb/C mice; 750 R) was 5/5 and the survival (female Balb/C mice; pretreatment prior to irradiation) was “improved survival”. The spleen weight (Balb/C female mice; Ex 38: day 7 after CP, guanosine 5, acyl derivatives 2.5 μmoles/mouse/day in 0.2% Tween 80 i.p. 6 days, Tween 80 0.2%) was “significantly larger spleens”, the total neutrophils (Balb/C female mice; Ex 41: day 7 after CP, treatment on only days 1 and 2, vs saline or Tween 80) was “significant increase” and the platelet number (Balb/C female mice; Ex 47: day 10 after CP, 2.5 μmoles/mouse/day) was “significantly greater”.
For `CCCCCCCCCCCCCCCC(=O)Nc1nc2c(ncn2[C@H]2C[C@H](OC(=O)CCCCCCCCCCCCCCC)[C@@H](COC(=O)CCCCCCCCCCCCCCC)O2)c(=O)[nH]1` [PdG, 3′,5′-O-N^2-tripalmitoyl-2′-deoxyguanosine], the Cells ([1]; day 1) was 1.9 ± .13 10^6/flask, the Cells ([1]; day 3) was 2.9 ± .10 10^6/flask and the CFU-GM/flask ([1]; day 4) was 5123 ± 561. The Cells ([1]; day 5) was 7.7 ± .2 10^6/flask, the CFU-GM/flask ([1]; day 7) was 33903 ± 9457 and the Cells ([1]; day 7) was 4.3 ± .15 10^6/flask. It also gave a serum interferon-gamma (IFN-gamma; 0 hr after LPS 100 μg, PdG 25 mg/kg i.p. daily before, 0 = below detection limit) of 0 picograms per ml, a serum interferon-gamma (IFN-gamma; 2 hr after LPS, 0 = below detection limit) of 0 picograms per ml and a serum interferon-gamma (IFN-gamma; 4 hr after LPS) of 825 ± 248 picograms per ml. For the same compound, the serum interferon-gamma (IFN-gamma; 8 hr after LPS) was 2129 ± 454 picograms per ml, the serum interferon-gamma (IFN-gamma; 10 hr after LPS) was 911 ± 279 picograms per ml and the serum interferon-gamma (IFN-gamma; 12 hr after LPS, 0 = below detection limit) was 0 picograms per ml. For the same compound, the serum interferon-gamma (IFN-gamma; 16 hr after LPS, 0 = below detection limit) was 0 picograms per ml, the serum interferon-gamma (IFN-gamma; 20 hr after LPS, 0 = below detection limit) was 0 picograms per ml and the “area under the curve (AUC) over the entire time course” value (IFN-gamma; PdG 25 mg/kg i.p.) was “significantly lower”. The “peak IFN-gamma levels vs control values” (IFN-gamma; PdG 25 mg/kg i.p.) was “five- to seven-fold lower”, the Cells/Thymus (thymocytes; 25 mg/kg i.p. 48 h before Depo-Medrol 250 mg/kg, 48 h after) was 64 ± 12 ×10^6 and the “Spleen Wt.” value (thymocytes; 25 mg/kg i.p. once, 48 h before Depo-Medrol 250 mg/kg, 48 h after corticosteroid) was 61 ± 11 mg. The “% Viable” value (thymocytes; thymic cells, 25 mg/kg i.p. 48 h before Depo-Medrol 250 mg/kg, 48 h after) was 87 ± 3 %.
